From patent US9556139B2, “6-substituted phenoxychroman carboxylic acid derivatives” (Array BioPharma Inc., priority 2008, dated 2017)

target: human DP2 (Homo sapiens (Human), UniProt Q9Y5Y4); experiment: DP-2 Binding Inhibition Assay (3H-PGD2 binding to membranes of K562 cells expressing DP2); details: EC50 (Nm) 1% HSA, inhibition of 3H-PGD2 binding, 1% HSA
Experimental: DP-2 Binding Inhibition Assay
The coding sequence of human DP2 was introduced into the human Leukemic cell line K562 by electroporation and stable clones expressing DP2 were obtained by limiting dilution followed by cell surface staining with a rat monoclonal antibody specific for human DP2. Membranes were prepared from one of these DP2 expressing clones and used to determine the ability of compounds of the present invention to inhibit binding of prostaglandin D2 (PGD2) to its receptor DP2 in the presence of one or more of the following serum protein concentrations, 0.1% BSA, 1% HSA or 4% HSA, by the following procedure. Membranes (1.25 μg/well for 0.1% BSA and 6 μg/well for 1% or 4% HSA) were mixed with ^3H-labeled PGD2 and various concentrations of test compounds in 150 μL of binding buffer (50 mM Tris-HCl, pH 7.4, 40 mM MgCl2, 0.1% bovine serum albumin, 0.1% NaN3) in 96-well U-bottom polypropylene plates. After incubation for 60 minutes at room temperature, the assay was transferred to a filtration plate (#MAFB; Millipore Corporation, Bedford, Mass.), and washed three times with binding buffer. Radioactivity was measured by a scintillation counter (TopCount; PerkinElmer Life Sciences, Boston, Mass.). Nonspecific binding was determined by incubations in the presence of 1 μM unlabeled PGD2 or 5 μM of a known DP2 antagonist. EC50 values for inhibition of binding were determined for each compound tested from the inflexion point of a standard 4-parameter logistical curve fitted to the values obtained.

human DP2, sequence (Q9Y5Y4 whole entry): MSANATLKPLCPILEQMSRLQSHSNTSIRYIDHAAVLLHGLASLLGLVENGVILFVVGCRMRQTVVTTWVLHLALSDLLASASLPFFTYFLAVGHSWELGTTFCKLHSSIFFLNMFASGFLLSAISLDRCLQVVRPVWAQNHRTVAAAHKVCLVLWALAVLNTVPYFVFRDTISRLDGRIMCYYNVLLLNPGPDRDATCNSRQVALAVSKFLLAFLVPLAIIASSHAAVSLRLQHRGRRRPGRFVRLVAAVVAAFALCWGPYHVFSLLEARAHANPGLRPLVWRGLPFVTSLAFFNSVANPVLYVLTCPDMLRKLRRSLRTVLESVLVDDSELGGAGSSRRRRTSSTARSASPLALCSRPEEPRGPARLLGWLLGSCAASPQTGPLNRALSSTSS

EC50 [nM] | SMILES
9.3 | O=C(NCCc1ccc(Cl)cc1)c1ccc(Oc2cc3c(cc2Cl)C(C(=O)O)CCO3)cc1 (single isomer, unassigned) [Example 11 Enantiomer 2, 6-Chloro-7-(4-(4-chlorophenethylcarbamoyl)phenoxy)chroman-4-carboxylic acid]

same assay, conditions: EC50 (nM) 4% HSA, inhibition of 3H-PGD2 binding, 4% HSA

SMILES | EC50 [nM]
COc1cc(C2CC2)ccc1CCNC(=O)c1ccc(Oc2cc3c(cc2Cl)C(C(=O)O)CCO3)cc1 (single isomer, unassigned) [235 Enantiomer 1, 6-chloro-7-(4-(4-cyclopropyl-2-methoxyphenethylcarbamoyl)phenoxy)chroman-4-carboxylic acid] | > 5000
O=C(NCCc1ccc(Cl)cc1)c1ccc(Oc2cc3c(cc2Cl)C(C(=O)O)CCO3)cc1 (single isomer, unassigned) [Example 11 Enantiomer 2, 6-Chloro-7-(4-(4-chlorophenethylcarbamoyl)phenoxy)chroman-4-carboxylic acid] | 111
O=C(NCCc1ccc(Cl)cc1Cl)c1ccc(Oc2cc3c(cc2Cl)C(C(=O)O)CCO3)cc1 (single isomer, unassigned) [Example 106 Enantiomer 1, 6-chloro-7-(4-(2,4-dichlorophenethylcarbamoyl)phenoxy)chroman-4-carboxylic acid] | > 5000
O=C(NCCc1ccccc1)c1ccc(Oc2cc3c(cc2Cl)C(C(=O)O)CCO3)cc1 (stereo not shown) [Example 12, Sodium 6-chloro-7-(4-(phenethylcarbamoyl)phenoxy)chroman-4-carboxylate] | 794

Second part, the compound after the results:

EC50 [nM] | SMILES
399 | O=C(NC1CCC(c2ccccc2)CC1)c1ccc(Oc2cc3c(cc2Cl)C(C(=O)O)CCO3)cc1 (single isomer, unassigned) [Example 155 peak 1, 6-chloro-7-(4-(4-phenylcyclohexylcarbamoyl)phenoxy)chroman-4-carboxylic acid, isomer 1]
1670 | O=C(NC1CCC(c2ccccc2)CC1)c1ccc(Oc2cc3c(cc2Cl)C(C(=O)O)CCO3)cc1 (single isomer, unassigned) [Example 155 peak 2, 6-chloro-7-(4-(4-phenylcyclohexylcarbamoyl)phenoxy)chroman-4-carboxylic acid, isomer 2]

same assay, conditions: assay described in Example A

SMILES | relative activity of the enantiomers in the DP2 binding inhibition assay
COc1cc(C2CC2)ccc1CCNC(=O)c1ccc(Oc2cc3c(cc2Cl)C(C(=O)O)CCO3)cc1 (single isomer, unassigned) [235 Enantiomer 1, 6-chloro-7-(4-(4-cyclopropyl-2-methoxyphenethylcarbamoyl)phenoxy)chroman-4-carboxylic acid] | less active than the sodium salt of Enantiomer 2
O=C(NCCc1ccc(Cl)cc1)c1ccc(Oc2cc3c(cc2Cl)C(C(=O)O)CCO3)cc1 (single isomer, unassigned) [Example 11 Enantiomer 2, 6-Chloro-7-(4-(4-chlorophenethylcarbamoyl)phenoxy)chroman-4-carboxylic acid] | more potent DP2 binding enantiomer
O=C(NCCc1ccc(Cl)cc1Cl)c1ccc(Oc2cc3c(cc2Cl)C(C(=O)O)CCO3)cc1 (single isomer, unassigned) [Example 106 Enantiomer 1, 6-chloro-7-(4-(2,4-dichlorophenethylcarbamoyl)phenoxy)chroman-4-carboxylic acid] | less active than the sodium salt of Enantiomer 2

same assay, conditions: read-out: EC50 (Nm) 1% HSA; inhibition of 3H-PGD2 binding, 1% HSA

EC50 [nM] | SMILES
37.4 | N#Cc1cc2c(cc1Oc1ccc(C(=O)NCCc3ccccc3)cc1)OCCC2C(=O)O (stereo not shown) [Example 5, 6-Cyano-7-(4-(phenethylcarbamoyl)phenoxy)chroman-4-carboxylic acid]
77.3 | N#Cc1cc2c(cc1Oc1ccc(C(=O)NC3Cc4ccccc4C3)cc1)OCCC2C(=O)O (stereo not shown) [Example 6, 6-Cyano-7-(4-(2,3-dihydro-1H-inden-2-ylcarbamoyl)phenoxy)chroman-4-carboxylic acid]
19 | N#Cc1cc2c(cc1Oc1ccc(C(=O)NOCc3ccc(Cl)cc3)cc1)OCCC2C(=O)O (stereo not shown) [Example 7, 7-(4-(4-Chlorobenzyloxycarbamoyl)phenoxy)-6-cyanochroman-4-carboxylic acid]
16 | N#Cc1cc2c(cc1Oc1ccc(C(=O)Nc3ccc(Cl)c(Cl)c3)cc1)OCCC2C(=O)O (stereo not shown) [Example 8, 6-Cyano-7-(4-(3,4-dichlorophenylcarbamoyl)phenoxy)chroman-4-carboxylic acid]
203 | O=C(NCCc1ccc(Cl)cc1)c1ccc(Oc2cc3c(cc2Cl)C(C(=O)O)CCO3)c([N+](=O)[O-])c1 (stereo not shown) [Example 9, 6-Chloro-7-(4-(4-chlorophenethylcarbamoyl)-2-nitrophenoxy)chroman-4-carboxylic acid]
13.9 | O=C(NCCc1ccc(Cl)cc1)c1ccc(Oc2cc3c(cc2Cl)C(C(=O)O)CCO3)cc1 (stereo not shown) [Example 10, 6-Chloro-7-(4-(4-chlorophenethylcarbamoyl)phenoxy)chroman-4-carboxylic acid]

same assay, conditions: read-out: EC50 (nM) 4% HSA; inhibition of 3H-PGD2 binding, 4% HSA

SMILES | EC50 [nM]
COc1cc(C2CC2)ccc1CCNC(=O)c1ccc(Oc2cc3c(cc2Cl)[C@@H](C(=O)O)CCO3)cc1 (single isomer, unassigned; enantiomer 2) [235 Enantiomer 2] | 17
O=C(NCCc1ccc(Cl)cc1)c1ccc(Oc2cc3c(cc2Cl)C(C(=O)O)CCO3)cc1 (stereo not shown) [Example 10, 6-Chloro-7-(4-(4-chlorophenethylcarbamoyl)phenoxy)chroman-4-carboxylic acid] | 225
O=C(NCCCCc1ccccc1)c1ccc(Oc2cc3c(cc2Cl)C(C(=O)O)CCO3)cc1 (stereo not shown) [Example 13, Sodium 6-chloro-7-(4-(4-phenylbutylcarbamoyl)phenoxy)chroman-4-carboxylate] | 405
O=C(NCCCCc1cccc(Cl)c1)c1ccc(Oc2cc3c(cc2Cl)C(C(=O)O)CCO3)cc1 (stereo not shown) [Example 14, Sodium 6-chloro-7-(4-(4-(3-chlorophenyl)butylcarbamoyl)phenoxy)chroman-4-carboxylate] | 824
O=C(NCCCCc1ccc(Cl)cc1)c1ccc(Oc2cc3c(cc2Cl)C(C(=O)O)CCO3)cc1 (stereo not shown) [Example 15, Sodium 6-chloro-7-(4-(4-(4-chlorophenyl)butylcarbamoyl)phenoxy)chroman-4-carboxylate] | 746
O=C(NCC/C=C\c1ccccc1Cl)c1ccc(Oc2cc3c(cc2Cl)C(C(=O)O)CCO3)cc1 (stereo not shown) [Example 16, Sodium (Z)-6-chloro-7-(4-(4-(2-chlorophenyl)but-3-enylcarbamoyl)phenoxy)chroman-4-carboxylate] | 318
O=C(NCCCCc1ccccc1Cl)c1ccc(Oc2cc3c(cc2Cl)C(C(=O)O)CCO3)cc1 (stereo not shown) [Example 17, Sodium 6-chloro-7-(4-(4-(2-chlorophenyl)butylcarbamoyl)phenoxy)chroman-4-carboxylate] | 395
O=C(NCC/C=C\c1ccc(Cl)cc1Cl)c1ccc(Oc2cc3c(cc2Cl)C(C(=O)O)CCO3)cc1 (stereo not shown) [Example 18, Sodium (Z)-6-chloro-7-(4-(4-(2,4-dichlorophenyl)but-3-enylcarbamoyl)phenoxy)chroman-4-carboxylate] | 502

Further lines, results first:

EC50 [nM] | SMILES
638 | O=C(NCCCCc1ccc(Cl)cc1Cl)c1ccc(Oc2cc3c(cc2Cl)C(C(=O)O)CCO3)cc1 (stereo not shown) [Example 19, Sodium 6-chloro-7-(4-(4-(2,4-dichlorophenyl)butylcarbamoyl)phenoxy)chroman-4-carboxylate]
759 | Cc1ccccc1CCNC(=O)c1ccc(Oc2cc3c(cc2Cl)C(C(=O)O)CCO3)cc1 (stereo not shown) [Example 20, Sodium 6-chloro-7-(4-(2-methylphenethylcarbamoyl)phenoxy)chroman-4-carboxylate]
169 | Cc1ccc(CCNC(=O)c2ccc(Oc3cc4c(cc3Cl)C(C(=O)O)CCO4)cc2)c(C)c1 (stereo not shown) [Example 21, Sodium 6-chloro-7-(4-(2,4-dimethylphenethylcarbamoyl)phenoxy)chroman-4-carboxylate]
327 | O=C(NCCc1ccc(Br)cc1)c1ccc(Oc2cc3c(cc2Cl)C(C(=O)O)CCO3)cc1 (stereo not shown) [Example 23, Sodium 7-(4-(4-bromophenethylcarbamoyl)phenoxy)-6-chlorochroman-4-carboxylate]
482 | O=C(NCCc1ccc(C2CC2)cc1)c1ccc(Oc2cc3c(cc2Cl)C(C(=O)O)CCO3)cc1 (stereo not shown) [Example 24, Sodium 6-chloro-7-(4-(4-cyclopropylphenethylcarbamoyl)phenoxy)chroman-4-carboxylate]
3330 | O=C(NCCC1CC1)c1ccc(Oc2cc3c(cc2Cl)C(C(=O)O)CCO3)cc1 (stereo not shown) [Example 25, Sodium 6-chloro-7-(4-(2-cyclopropylethylcarbamoyl)phenoxy)chroman-4-carboxylate]
160 | O=C(NCCc1ccc(-c2ccccc2Cl)cc1)c1ccc(Oc2cc3c(cc2Cl)C(C(=O)O)CCO3)cc1 (stereo not shown) [Example 26, Sodium 6-chloro-7-(4-(2-(2′-chlorobiphenyl-4-yl)ethylcarbamoyl)phenoxy)chroman-4-carboxylate]
216 | Cc1cc(Cl)ccc1CCNC(=O)c1ccc(Oc2cc3c(cc2Cl)C(C(=O)O)CCO3)cc1 (stereo not shown) [Example 27, Sodium 6-chloro-7-(4-(4-chloro-2-methylphenethylcarbamoyl)phenoxy)chroman-4-carboxylate]
123 | O=C(NCCc1ccc(Br)cc1Cl)c1ccc(Oc2cc3c(cc2Cl)C(C(=O)O)CCO3)cc1 (stereo not shown) [Example 28, Sodium 7-(4-(4-bromo-2-chlorophenethylcarbamoyl)phenoxy)-6-chlorochroman-4-carboxylate]
137 | O=C(NCCc1ccc(-c2ccccc2Cl)cc1Cl)c1ccc(Oc2cc3c(cc2Cl)C(C(=O)O)CCO3)cc1 (stereo not shown) [Example 29, Sodium 6-chloro-7-(4-(2-(2′,3-dichlorobiphenyl-4-yl)ethylcarbamoyl)phenoxy)chroman-4-carboxylate]
301 | O=C(NCCc1ccc(C2CC2)cc1Cl)c1ccc(Oc2cc3c(cc2Cl)C(C(=O)O)CCO3)cc1 (stereo not shown) [Example 30, Sodium 6-chloro-7-(4-(2-chloro-4-cyclopropylphenethylcarbamoyl)phenoxy)chroman-4-carboxylate]
91.4 | O=C(NCCc1ccc(-c2ccccc2)cc1Cl)c1ccc(Oc2cc3c(cc2Cl)C(C(=O)O)CCO3)cc1 (stereo not shown) [Example 31, Sodium 6-chloro-7-(4-(2-(3-chlorobiphenyl-4-yl)ethylcarbamoyl)phenoxy)chroman-4-carboxylate]
88 | O=C(NCCc1ccc(Cl)cc1Br)c1ccc(Oc2cc3c(cc2Cl)C(C(=O)O)CCO3)cc1 (stereo not shown) [Example 32, Sodium 7-(4-(2-bromo-4-chlorophenethylcarbamoyl)phenoxy)-6-chlorochroman-4-carboxylate]
